The values that follow come from patent publication US20240270762A1, “PENICILLIN-BINDING PROTEIN INHIBITORS” (priority 2021, published 2024).

Experiment [1] has as its system N. gonorrhoeae WHO M. Nature of the experiment: Liquid broth MIC in Fastidious broth. The following applies: Neisseria gonorrhoeae, read-out: Minimum Inhibitory Concentration, WHO M.
The target of experiment [2] is T1, PBP1a from Acinetobacter baumannii (ATCC 19606) (Acinetobacter baumannii, UniProt A0ABX6CK30).
T1 sequence (A0ABX6CK30 1-851): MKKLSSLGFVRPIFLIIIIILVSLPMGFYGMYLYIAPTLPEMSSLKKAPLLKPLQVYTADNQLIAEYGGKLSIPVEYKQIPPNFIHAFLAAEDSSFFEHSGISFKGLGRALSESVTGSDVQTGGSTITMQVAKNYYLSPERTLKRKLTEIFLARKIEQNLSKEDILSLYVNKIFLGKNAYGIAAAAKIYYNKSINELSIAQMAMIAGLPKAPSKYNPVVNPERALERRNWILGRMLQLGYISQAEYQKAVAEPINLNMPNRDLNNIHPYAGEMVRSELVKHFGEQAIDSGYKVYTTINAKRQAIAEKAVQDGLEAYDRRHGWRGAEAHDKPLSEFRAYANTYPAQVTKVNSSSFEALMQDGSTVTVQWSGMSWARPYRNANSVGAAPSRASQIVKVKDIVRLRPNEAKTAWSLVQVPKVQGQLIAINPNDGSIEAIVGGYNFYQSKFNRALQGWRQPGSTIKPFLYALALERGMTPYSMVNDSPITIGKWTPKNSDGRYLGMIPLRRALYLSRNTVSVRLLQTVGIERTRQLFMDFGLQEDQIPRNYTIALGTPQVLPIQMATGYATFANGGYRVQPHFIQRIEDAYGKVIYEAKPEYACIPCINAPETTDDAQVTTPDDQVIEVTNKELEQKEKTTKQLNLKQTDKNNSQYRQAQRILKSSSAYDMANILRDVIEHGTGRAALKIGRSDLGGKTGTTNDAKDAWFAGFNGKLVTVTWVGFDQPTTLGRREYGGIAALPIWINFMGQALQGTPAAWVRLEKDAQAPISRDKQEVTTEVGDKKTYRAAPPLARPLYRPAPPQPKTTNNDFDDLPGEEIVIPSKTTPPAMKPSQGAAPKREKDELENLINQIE
Kind of experiment: Bocillin-FL fluorescence polarization competition binding, A. baumannii PBP1a. The conditions noted are these: fluorescence polarization competition binding assay using Bocillin-FL; read-out: A. baumannii PBP1a Potency. Summed up:
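Purified PBPs pre-incubated with inhibitor (E. coli PBP3 1.5 μM, 30 min; P. aeruginosa PBP3 0.75 μM, A. baumannii PBP1a 1 μM and PBP3 0.2 μM, 15 min), then Bocillin-FL 0.1 μM (0.05 μM for PBP1a) added; FP read up to 60 min. EC50 = concentration halving bound Bocillin-FL.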
On the technique in general: Polarisation of emitted light reports the rotation of a fluorescent probe.

The subject of experiment [3] is N. gonorrhoeae ATCC 49226. Nature of the experiment: Liquid broth MIC in Fastidious broth. The following applies: Neisseria gonorrhoeae, ATCC49226, read-out: Minimum Inhibitory Concentration, ATCC 49226.
Description: Additional antibacterial testing of the series was performed in 8 reference strains of N. gonorrhoeae (ATCC 49226, FA1090, MS 11, WHO G, WHO L, WHO M, WHO K, WHO X, WHO Z, WHO Q, CDC-0197). ATCC 49226, FA1090, MS11, WHO G, WHO L, and WHO M produce wild type or wild-type like PBP2. WHO K, WHO X, WHO Z, WHO Q, and CDC-0197 produce mosaic PBP2. Liquid broth-based assays were used for antibacterial testing of PBP inhibitors in Neisseria gonorrhoeae. Briefly, cryo-preserved bacterial cultures of clinical strains were streaked for isolation on Chocolate Agar (72 g/L (2×) GC Agar Base (BD #228950) and 2% (2×) Hemoglobin was autoclaved at 121° C. for 20 minutes to sterilize. Once cooled to ˜50° C. the 2×GC Agar Base and 2× Hemoglobin solutions are combined and 1% IsoVitaleX Enrichment (BD #211876) was added to the solution). Strains were incubated at 36° C. and 5% CO2 to allow growth of colonies, 24 hours before inoculum preparation. 2-fold serial dilutions of test compounds were conducted in a 96 well plate with a final volume of 75 μL per well at 2-fold the final desired concentration in Fastidious broth (Remel #R07664). For preparation of assay inoculum, a direct suspension was prepared by aseptically swabbing 10-15 colonies from agar plates into culture tubes containing 2 mL of fresh sterile saline. After the dilution plates were set up, direct suspensions were then diluted in a cuvette containing sterile saline and the optical density was measured at 600 nm. Inocula were diluted such that 75 μL of this culture in Fastidious broth results in a starting bacterial concentration of 5×10^5 CFU/mL when added to the dilution plates. The plates were incubated for ˜24 hours at 36° C. and 5% CO2.
Experiment [4] concerns N. gonorrhoeae WHO Z. Kind of experiment: Liquid broth MIC in Fastidious broth. The following applies: Neisseria gonorrhoeae, read-out: Minimum Inhibitory Concentration, WHO Z.
The test system of experiment [5] is N. gonorrhoeae WHO Q. Nature of the experiment: Liquid broth MIC in Fastidious broth. The following applies: Neisseria gonorrhoeae, read-out: Minimum Inhibitory Concentration, WHO Q.

In brackets after ≈: the same amount, converted by molar mass.

As for `O=C(NCCCS(=O)(=O)N1CCN(C(=O)NC(C(=O)N[C@H]2Cc3ccc(F)c(C(=O)O)c3OB2O)c2cc(F)c(O)c(O)c2Cl)C1=O)Nc1cccc(O)c1` (stereo partly drawn) [Example 277, (3R)-3-(2-(2-chloro-5-fluoro-3,4-dihydroxyphenyl)-2-(3-((3-(3-(3-hydroxyphenyl)ureido)propyl)sulfonyl)-2-oxoimidazolidine-1-carboxamido)acetamido)-7-fluoro-2-hydroxy-3,4-dihydro-2H-benzo[e][1,2]oxaborinine-8-carboxylic acid], the MIC in experiment [1], in experiment [3], in experiment [4] and in experiment [5] was 16 to 32 µg/mL (≈ 19.7 to 39.5 µM) in each case. Also, the IC50 in experiment [2] is > 250 µM.

On to `O=C(NCCCS(=O)(=O)N1CCN(C(=O)NC(C(=O)N[C@H]2Cc3ccc(F)c(C(=O)O)c3OB2O)c2cc(F)c(O)c(O)c2Cl)C1=O)Nc1cccnc1` (stereo partly drawn) [Example 278, (3R)-3-(2-(2-chloro-5-fluoro-3,4-dihydroxyphenyl)-2-(2-oxo-3-((3-(3-(pyridin-3-yl)ureido)propyl)sulfonyl)imidazolidine-1-carboxamido)acetamido)-7-fluoro-2-hydroxy-3,4-dihydro-2H-benzo[e][1,2]oxaborinine-8-carboxylic acid], for which the MIC in experiment [1], in experiment [3], in experiment [4] and in experiment [5] was 16 to 32 µg/mL (≈ 20.1 to 40.2 µM) each time. Further, the IC50 in experiment [2] is > 250 µM.

On to `O=C(NCCN1CCN(C(=O)N[C@@H](C(=O)N[C@H]2Cc3ccc(F)c(C(=O)O)c3OB2O)c2cc(F)c(O)c(O)c2Cl)C1=O)Nc1ccc(O)cc1` [Example 279, (R)-3-((R)-2-(2-chloro-5-fluoro-3,4-dihydroxyphenyl)-2-(3-(2-(3-(4-hydroxyphenyl)ureido)ethyl)-2-oxoimidazolidine-1-carboxamido)acetamido)-7-fluoro-2-hydroxy-3,4-dihydro-2H-benzo[e][1,2]oxaborinine-8-carboxylic acid], for which the MIC was 1 to 2 µg/mL (≈ 1.36 to 2.73 µM) in experiment [1], 4 to 8 µg/mL (≈ 5.46 to 10.9 µM) in experiment [3], 4 to 8 µg/mL (≈ 5.46 to 10.9 µM) in experiment [4] and 16 to 32 µg/mL (≈ 21.8 to 43.7 µM) in experiment [5]. Moreover, the IC50 in experiment [2] was > 250 µM.

In the case of `O=C(NCCCN1CCN(C(=O)NC(C(=O)N[C@H]2Cc3ccc(F)c(C(=O)O)c3OB2O)c2cc(F)c(O)c(O)c2Cl)C1=O)c1ccc(O)cc1` (stereo partly drawn) [Example 280, (3R)-3-(2-(2-chloro-5-fluoro-3,4-dihydroxyphenyl)-2-(3-(3-(4-hydroxybenzamido)propyl)-2-oxoimidazolidine-1-carboxamido)acetamido)-7-fluoro-2-hydroxy-3,4-dihydro-2H-benzo[e][1,2]oxaborinine-8-carboxylic acid], the MIC in experiment [1] is 16 to 32 µg/mL (≈ 21.9 to 43.7 µM); in experiment [3], 16 to 32 µg/mL (≈ 21.9 to 43.7 µM); in experiment [4], 16 to 32 µg/mL (≈ 21.9 to 43.7 µM); in experiment [5], > 64 µg/mL. Also, in experiment [2], the IC50 is > 250 µM.

Take `O=C(NCCCN1CCN(C(=O)NC(C(=O)N[C@H]2Cc3ccc(F)c(C(=O)O)c3OB2O)c2cc(F)c(O)c(O)c2Cl)C1=O)c1cccnc1` (stereo partly drawn) [Example 281, (3R)-3-(2-(2-chloro-5-fluoro-3,4-dihydroxyphenyl)-2-(3-(3-(nicotinamido)propyl)-2-oxoimidazolidine-1-carboxamido)acetamido)-7-fluoro-2-hydroxy-3,4-dihydro-2H-benzo[e][1,2]oxaborinine-8-carboxylic acid]: the MIC in experiment [1] was 16 to 32 µg/mL (≈ 22.3 to 44.6 µM); in experiment [3] it was > 64 µg/mL; in experiment [4], 16 to 32 µg/mL (≈ 22.3 to 44.6 µM); in experiment [5], > 64 µg/mL. In addition, the IC50 in experiment [2] is > 250 µM.

Turning to `O=C(NCCCN1CCN(C(=O)N[C@H](C(=O)N[C@H]2Cc3ccc(F)c(C(=O)O)c3OB2O)c2cc(F)c(O)c(O)c2Cl)C1=O)Nc1ccc(O)cc1` [Example 283, (R)-3-((S)-2-(2-chloro-5-fluoro-3,4-dihydroxyphenyl)-2-(3-(3-(3-(4-hydroxyphenyl)ureido)propyl)-2-oxoimidazolidine-1-carboxamido)acetamido)-7-fluoro-2-hydroxy-3,4-dihydro-2H-benzo[e][1,2]oxaborinine-8-carboxylic acid], the MIC in experiment [1], in experiment [3], in experiment [4] and in experiment [5] was > 64 µg/mL in each case. Further, the IC50 in experiment [2] was > 250 µM.

On to `O=C(NCCCN1CCN(C(=O)N[C@@H](C(=O)N[C@H]2Cc3ccc(F)c(C(=O)O)c3OB2O)c2cc(F)c(O)c(O)c2Cl)C1=O)Nc1ccc(O)cc1` [Example 284, (R)-3-((R)-2-(2-chloro-5-fluoro-3,4-dihydroxyphenyl)-2-(3-(3-(3-(4-hydroxyphenyl)ureido)propyl)-2-oxoimidazolidine-1-carboxamido)acetamido)-7-fluoro-2-hydroxy-3,4-dihydro-2H-benzo[e][1,2]oxaborinine-8-carboxylic acid], for which the MIC in experiment [1], in experiment [3], in experiment [4] and in experiment [5] was 4 to 8 µg/mL (≈ 5.36 to 10.7 µM) throughout. Also, in experiment [2], the IC50 is > 250 µM.

For the molecule `O=C(NCCCN1CCN(C(=O)NC(C(=O)N[C@H]2Cc3ccc(F)c(C(=O)O)c3OB2O)c2cc(F)c(O)c(O)c2Cl)C1=O)Nc1ccncc1` (stereo partly drawn) [Example 285, (3R)-3-(2-(2-chloro-5-fluoro-3,4-dihydroxyphenyl)-2-(2-oxo-3-(3-(3-(pyridin-4-yl)ureido)propyl)imidazolidine-1-carboxamido)acetamido)-7-fluoro-2-hydroxy-3,4-dihydro-2H-benzo[e][1,2]oxaborinine-8-carboxylic acid], the MIC in experiment [1], in experiment [3], in experiment [4] and in experiment [5] was > 64 µg/mL each time. Moreover, the IC50 in experiment [2] is > 250 µM.

Turning to `O=C(NCCS(=O)(=O)N1CCN(C(=O)N[C@H](C(=O)N[C@H]2Cc3ccc(F)c(C(=O)O)c3OB2O)c2cc(F)c(O)c(O)c2Cl)C1=O)c1ccc(O)cc1` [Example 286, (R)-3-((S)-2-(2-chloro-5-fluoro-3,4-dihydroxyphenyl)-2-(3-((2-(4-hydroxybenzamido)ethyl)sulfonyl)-2-oxoimidazolidine-1-carboxamido)acetamido)-7-fluoro-2-hydroxy-3,4-dihydro-2H-benzo[e][1,2]oxaborinine-8-carboxylic acid], the MIC in experiment [1], in experiment [3], in experiment [4] and in experiment [5] was > 64 µg/mL throughout. Moreover, the IC50 in experiment [2] is > 250 µM.

For the molecule `O=C(O)c1c(F)ccc2c1OB(O)[C@@H](NC(=O)C(NC(=O)N1CCN(CC3CCN(C(=O)c4cccc(O)c4)CC3)C(=O)C1=O)c1cc(F)c(O)c(O)c1Cl)C2` (stereo partly drawn) [Example 475, (3R)-3-(2-(2-chloro-5-fluoro-3,4-dihydroxyphenyl)-2-(4-((1-(3-hydroxybenzoyl)piperidin-4-yl)methyl)-2,3-dioxopiperazine-1-carboxamido)acetamido)-7-fluoro-2-hydroxy-3,4-dihydro-2H-benzo[e][1,2]oxaborinine-8-carboxylic acid], in experiment [2], the IC50 is > 250 µM.

For the molecule `O=C(O)c1c(F)ccc2c1OB(O)[C@@H](NC(=O)C(NC(=O)N1CCN(CC3CCN(C(=O)Nc4cccc(O)c4)CC3)C(=O)C1=O)c1cc(F)c(O)c(O)c1Cl)C2` (stereo partly drawn) [Example 477, (3R)-3-(2-(2-chloro-5-fluoro-3,4-dihydroxyphenyl)-2-(4-((1-((3-hydroxyphenyl)carbamoyl)piperidin-4-yl)methyl)-2,3-dioxopiperazine-1-carboxamido)acetamido)-7-fluoro-2-hydroxy-3,4-dihydro-2H-benzo[e][1,2]oxaborinine-8-carboxylic acid], the IC50 in experiment [2] was > 250 µM.

With `O=C(O)c1c(F)ccc2c1OB(O)[C@@H](NC(=O)C(NC(=O)N1CCN(C3CCN(C(=O)Nc4cccc(O)c4F)CC3)C(=O)C1=O)c1cc(F)c(O)c(O)c1Cl)C2` (stereo partly drawn) [Example 478, (3R)-3-(2-(2-chloro-5-fluoro-3,4-dihydroxyphenyl)-2-(4-(1-((2-fluoro-3-hydroxyphenyl)carbamoyl)piperidin-4-yl)-2,3-dioxopiperazine-1-carboxamido)acetamido)-7-fluoro-2-hydroxy-3,4-dihydro-2H-benzo[e][1,2]oxaborinine-8-carboxylic acid], the IC50 in experiment [2] is > 250 µM.
